# Laboratory results from ChEMBL document CHEMBL1156863, “Synthesis of 1-(D-glucopyranosyl)-1,2,3-triazoles and their evaluation as glycogen phosphorylase inhibitors” (Bioorg Med Chem, 2010).
# Target: T1, Glycogen phosphorylase, muscle form (Oryctolagus cuniculus, UniProt P00489)
# T1 sequence (P00489 whole entry): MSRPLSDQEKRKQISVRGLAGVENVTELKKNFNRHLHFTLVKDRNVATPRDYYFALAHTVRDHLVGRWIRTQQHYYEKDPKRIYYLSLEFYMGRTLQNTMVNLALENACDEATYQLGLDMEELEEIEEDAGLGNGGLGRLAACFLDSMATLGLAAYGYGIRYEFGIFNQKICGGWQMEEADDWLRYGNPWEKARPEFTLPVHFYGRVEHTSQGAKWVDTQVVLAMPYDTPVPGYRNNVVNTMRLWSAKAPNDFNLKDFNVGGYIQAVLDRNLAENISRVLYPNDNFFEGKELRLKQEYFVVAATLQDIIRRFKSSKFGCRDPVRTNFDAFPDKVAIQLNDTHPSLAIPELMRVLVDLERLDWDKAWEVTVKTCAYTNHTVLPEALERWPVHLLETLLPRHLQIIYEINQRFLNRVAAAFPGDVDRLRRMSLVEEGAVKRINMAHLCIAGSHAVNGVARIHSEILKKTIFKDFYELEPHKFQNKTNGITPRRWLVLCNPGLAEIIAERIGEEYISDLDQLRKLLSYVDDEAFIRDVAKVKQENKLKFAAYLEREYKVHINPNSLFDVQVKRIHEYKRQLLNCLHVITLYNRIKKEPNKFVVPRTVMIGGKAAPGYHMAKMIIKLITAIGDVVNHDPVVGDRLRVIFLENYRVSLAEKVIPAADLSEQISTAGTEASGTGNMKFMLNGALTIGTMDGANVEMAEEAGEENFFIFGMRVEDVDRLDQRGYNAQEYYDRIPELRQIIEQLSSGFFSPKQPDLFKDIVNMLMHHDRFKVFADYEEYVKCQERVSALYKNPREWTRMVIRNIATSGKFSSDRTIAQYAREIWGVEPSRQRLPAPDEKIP
# Assay: Inhibition of rabbit skeletal muscle glycogen phosphorylase b by Dixon plot
row,Ki,SMILES
1,26 µM,OCc1cn([C@@H]2O[C@H](CO)[C@@H](O)[C@H](O)[C@H]2O)nn1
2,16 µM,COC(=O)N[C@]1(C(N)=O)O[C@H](CO)[C@@H](O)[C@H](O)[C@H]1O
3,20 µM,O=C(CO)N[C@@H]1O[C@H](CO)[C@@H](O)[C@H](O)[C@H]1O

row,SMILES,Ki
1,OC[C@H]1O[C@@H](n2cc(-c3ccc4ccccc4c3)nn2)[C@H](O)[C@@H](O)[C@@H]1O,36 µM
2,OC[C@H]1O[C@@H](n2cc(-c3ccccc3)nn2)[C@H](O)[C@@H](O)[C@@H]1O,162 µM

# Target: T1, Glycogen phosphorylase, muscle form
# Assay: Inhibition of rabbit skeletal muscle glycogen phosphorylase b by Lineweaver-Burke plot analysis
row,IC50,SMILES
1,350 µM,NOC(=O)c1cn([C@@H]2O[C@H](CO)[C@@H](O)[C@H](O)[C@H]2O)nn1
2,780 µM,NC(=O)[C@@]1(n2cc(-c3ccc4ccccc4c3)nn2)O[C@H](CO)[C@@H](O)[C@H](O)[C@H]1O
3,500 µM,COC(=O)c1cn([C@@H]2O[C@H](CO)[C@@H](O)[C@H](O)[C@H]2O)nn1
4,625 µM,OC[C@H]1O[C@@H](n2cc(-c3cccc4ccccc34)nn2)[C@H](O)[C@@H](O)[C@@H]1O
5,670 µM,OCc1cn([C@H]2O[C@H](CO)[C@@H](O)[C@H](O)[C@H]2O)nn1

row,SMILES,IC50
1,O=C(O)c1cn([C@H]2O[C@H](CO)[C@@H](O)[C@H](O)[C@H]2O)nn1,400 µM
2,OC[C@H]1O[C@@H](n2cc(Cc3ccccc3)nn2)[C@H](O)[C@@H](O)[C@@H]1O,600 µM

# Target: T1, Glycogen phosphorylase, muscle form
row,Ki,SMILES
1,1100 µM,O=C(Cc1ccccc1)N[C@@H]1O[C@H](CO)[C@@H](O)[C@H](O)[C@H]1O
2,370 µM,NC(=O)[C@H]1O[C@H](CO)[C@@H](O)[C@H](O)[C@H]1O
3,16 µM,COC(=O)N[C@]1(C(N)=O)O[C@H](CO)[C@@H](O)[C@H](O)[C@H]1O
4,210 µM,COCC(=O)N[C@@H]1O[C@H](CO)[C@@H](O)[C@H](O)[C@H]1O
5,310 µM,CC(=O)N[C@]1(C(N)=O)O[C@H](CO)[C@@H](O)[C@H](O)[C@H]1O

row,SMILES,Ki
1,"O=C(NC1O[C@H](CO)[C@@H](O)[C@H](O)[C@H]1O)c1ccccc1 (single isomer, unassigned)",144 µM
